The subject of the test is SARS-CoV-2 replicon. Type of test: cell-based. The conditions noted are these: read-out: SARS-CoV-2 Replicon (Huh-7cell) EC50. (In general: Replicon systems follow genome replication, usually without infectious particles.)

Some results are limits rather than exact numbers.

In general, EC50 refers to the concentration at which the effect is half-maximal. Regarding `CCC(C)(C)COC(=O)[C@H](C)NP(=O)(OCOC(=O)OC(C)C)OC[C@H]1O[C@@](C#N)(c2ccc3c(N)ncnn23)[C@H](OC(=O)C(C)C)[C@@H]1OC(=O)C(C)C` (mixture of isomers) [Compound 14, (2R,3R,4R,5R)-2-(4-aminopyrrolo[2,1-f][1,2,4]triazin-7-yl)-2-cyano-5-((((((S)-1-(2,2-dimethylbutoxy)-1-oxopropan-2-yl)amino)(((isopropoxycarbonyl)oxy)methoxy)phosphoryl)oxy)methyl)tetrahydrofuran-3,4-diyl bis(2-methylpropionate)], the EC50 lay within 0.01 to 0.05 µM.
As to `CC(C)OC(=O)OCO[P@](=O)(N[C@@H](C)C(=O)OC(C)C)OC[C@H]1O[C@@](C#N)(c2ccc3c(N)ncnn23)[C@H](OC(=O)C(C)C)[C@@H]1OC(=O)C(C)C` [Compound 3b, (2R,3R,4R,5R)-2-(4-aminopyrrolo[2,1-f][1,2,4]triazin-7-yl)-2-cyano-5-((((S)-(((S)-1-isopropoxy-1-oxopropan-2-yl)amino)(((isopropoxycarbonyl)oxy)methoxy)phosphoryl)oxy)methyl)tetrahydrofuran-3,4-diyl bis(2-methylpropionate)], the EC50 was under 0.005 µM.
The result for `CCC(CC)COC(=O)C[C@H](N[P@](=O)(OC[C@H]1O[C@@](C#N)(c2ccc3c(N)ncnn23)[C@H](OC(=O)C(C)C)[C@@H]1OC(=O)C(C)C)Oc1ccccc1)C(=O)OCC(CC)CC` [Compound 62b, (2R,3R,4R,5R)-2-(4-aminopyrrolo[2,1-f][1,2,4]triazin-7-yl)-2-cyano-5-((((S)-(((S)-1,4-bis(2-ethylbutoxy)-1,4-dioxobutan-2-yl)amino)(phenoxy)phosphoryl)oxy)methyl)tetrahydrofuran-3,4-diyl bis(2-methylpropionate)] reads 0.01 to 0.05 µM.
As to “(2R,3R,4R,5R)-2-(4-aminopyrrolo[2,1-f][1,2,4]triazin-7-yl)-2-cyano-5-((((S)-(((S)-1-isopropoxy-1-oxopropan-2-yl)amino)(((isopropoxycarbonyl)oxy)methoxy)phosphoryl)oxy)methyl)tetrahydrofuran-3,4-diyl diacetate [Compound 1b]”, the concentration giving a half-maximal response (EC50) lay within 0.005 to 0.01 µM.
In the case of `CCC(=O)O[C@H]1[C@@H](OC(=O)CC)[C@](C#N)(c2ccc3c(N)ncnn23)O[C@@H]1CO[P@](=O)(OCOC(=O)OC(C)C)Oc1ccc(C(C)(C)C)cc1` [Compound 23a, (2R,3R,4R,5R)-2-(4-aminopyrrolo[2,1-f][1,2,4]triazin-7-yl)-5-((((S)-(4-tert-butylphenoxy)(((isopropoxycarbonyl)oxy)methoxy)phosphoryl)oxy)methyl)-2-cyanotetrahydrofuran-3,4-diyl dipropionate], the EC50 is under 0.005 µM.
Regarding `CCC(CC)COC(=O)[C@H](C)N[P@](=O)(OCOC(=O)C(C)(C)C)OC[C@H]1O[C@@](C#N)(c2ccc3c(N)ncnn23)[C@H](OC(=O)C(C)C)[C@@H]1OC(=O)C(C)C` [Compound 11a, (2R,3R,4R,5R)-2-(4-aminopyrrolo[2,1-f][1,2,4]triazin-7-yl)-2-cyano-5-((((R)-(((S)-1-(2-ethylbutoxy)-1-oxopropan-2-yl)amino)((pivaloyloxy)methoxy)phosphoryl)oxy)methyl)tetrahydrofuran-3,4-diyl bis(2-methylpropionate)], the EC50 was in the range of 0.01 to 0.05 µM.
Regarding `CCC(CC)COC(=O)[C@H](Cc1ccccc1)N[P@@](=O)(OC[C@H]1O[C@@](C#N)(c2ccc3c(N)ncnn23)[C@H](OC(=O)C(C)C)[C@@H]1OC(=O)C(C)C)Oc1ccc(C(C)(C)C)cc1` [Compound 53a, (2R,3R,4R,5R)-2-(4-aminopyrrolo[2,1-f][1,2,4]triazin-7-yl)-2-cyano-5-((((((S)-1-(2-ethylbutoxy)-1-oxo-3-phenylpropan-2-yl)amino)((R)-4-tert-butylphenoxy)phosphoryl)oxy)methyl)tetrahydrofuran-3,4-diyl bis(2-methylpropionate)], the EC50 was in the range of 0.05 to 0.5 µM.
